Assay results as given in a melting point compilation (Tetko et al.; mined from patent text by program, amines drawn as free bases though some values may be those of a salt).

Structure (SMILES) | melting point
CCCCS(=O)(=O)C(c1ccc(Cl)cc1)c1ccc(Cl)cc1 | 104 to 106 °C
Oc1ccc2c(c1)COc1cc3cc(O)ccc3cc1-2 | 231 to 233 °C
CSc1c(N)nc(NCCCOC(C)C)nc1Cl | 245 °C
CN(C)C=C1CN=C(c2ccccc2)c2ccccc2C1=O | 131 to 133 °C
CCOC(=S)SC(=CC(=O)c1cc(Cl)c(C)c(Cl)c1)C(=O)O | 126 to 128 °C
O=C(O)CCCCCCCCC(=O)c1ccccc1O | 85 to 87 °C
CCCCCc1ccc(C(O)(c2c(C)cc(C)c(C)c2OC)C(C)C)cc1 (stereo not drawn) | 55 °C
O=c1c2c(Cl)cc(Cl)cc2n(Cc2ccccc2)c(=O)n1Cc1cccc(Cl)c1 | 123 to 129 °C
CC(C)(C)c1ccc(C=CC2=CC(c3ccc(C(C)(C)C)cc3)N(c3ccccc3)N2)cc1 (stereo not drawn) | 188 to 192 °C
Cc1ccc(Cl)c(Nc2ccccc2-c2nsc(=O)o2)c1Cl | 135 to 137 °C
CCCN(c1ncncc1C#N)n1ccc2ccccc21 | 129 to 130 °C
CCCc1cc2c(c3ccc(O)cc13)OCc1cc(O)ccc1-2 | 86 to 95 °C
OCc1c(F)cccc1-c1ccc2nc(-c3ccc(Cl)cc3)cn2c1 | 229 to 230 °C
N#CCC(=O)N1CC=CCC1 | 58 to 59 °C
COc1ccc(-c2nc(SCC(F)(F)F)[nH]c2-c2ccc(OC)cc2)cc1 | 119 to 120 °C
N#Cc1ccc(-c2ccc(-c3ccco3)o2)cc1 | 104 to 105 °C
c1ccc(NC2=NC(Nc3ccccc3)(c3ccccc3)C(c3ccccc3)=N2)cc1 (stereo not drawn) | 153 to 156 °C
CCC(C)CNN(NCC(C)CC)C(=O)c1cc(NC(=O)CCl)cc(C(N)=O)c1 (stereo not drawn) | 160 to 162 °C
OCC1c2ccccc2-c2c1c1ccccc1c1ccccc21 (stereo not drawn) | 143 to 145 °C
O=C(O)Cn1cc(Cc2nc3c(F)c(F)cc(F)c3s2)c2cc(Cl)ccc21 | 188 to 189 °C
Cc1cccc(-c2nc(CCOc3ccc(/C=C/C=O)cc3)c(C)o2)c1 | 110 to 111 °C
CSc1ncc(C(C)O)c(N)n1 (stereo not drawn) | 140 to 142 °C
CC(c1ccccc1)(c1ccc(O)cc1)c1ccc(O)cc1 | 185 to 187 °C
Cc1ccc(-n2cc(CCCO)c(C(C)C)n2)nc1 | 82 to 83 °C
Cc1cn(C)cc(-c2ccccc2)c1=O | 111 to 113 °C
C=C(C)COc1ccc(C(=O)C=Cc2c(Cl)cccc2Cl)c2oc3ccccc3c(=O)c12 | 135 to 137 °C
CC(=O)Oc1c(C)cc(C)cc1CCc1cc(C)cc(C)c1OC(C)=O | 130 to 131 °C
OC1CSC(Oc2cccc(-c3cccnc3Cl)c2)C(O)C1O (stereo not drawn) | 130 °C
COc1cc([C@H]2CC[C@H](c3cc(OC)c(OC)c(OC)c3)C2=O)cc(OC)c1OC (relative stereo) | 140 to 142 °C
CCOC(=O)c1sc(C(=O)OCC)c2c1OC=CCO2 | 198 to 200 °C

The next lines start with the values.

melting point | Structure (SMILES)
105 to 108 °C | Cc1cccc(-c2[nH]c(C(C)C)nc2-c2ccc(F)c(-c3ccc(S(C)(=O)=O)cn3)c2)n1
170 to 172 °C | CS(=O)(=O)Nc1cc([C@@H](O)CNC2CCN(c3ccc(S(=O)(=O)NCC(=O)O)cc3)CC2)ccc1O
> 250 °C | Cc1cccc2c1S(=O)(=O)N=C2C1=C(O)C(C(C)(C)C)N(Cc2ccc(F)cc2)C1=O (stereo not drawn)
195 to 196 °C | Cc1sc2cc(CO)ccc2c1C(=O)O
79.5 to 82 °C | CC(=O)Oc1ccc(O[C@@H]2CCN(C)C[C@H]2c2ccccc2)cc1 (relative stereo)
115 to 119 °C | CC(N)=Nc1ccc(Cl)cc1Cc1ccccc1F
94 to 95 °C | O=C1CN2Cc3cc(OCCCC(=O)N(CCCCCCOC(=O)c4ccccc4)C4CCCCC4)ccc3N=C2N1
188 °C | CCOC(=O)c1c(N2CCN(C)CC2)c2cc(C)ccc2n(-c2ccccc2)c1=O
116 to 118 °C | COc1cccc2c(Nc3ccccc3C)c(C(=O)C(C)C)cnc12
187 to 189 °C | Cc1ccc([C@@H]2c3c(C)c(NC(=O)Cc4ccc(C(F)(F)F)cc4)c(C)c(C)c3OC2(C)C)cc1
210 to 212 °C | Nc1sc2c(c1C(=O)c1ccc(Br)c3ccccc13)CCC2
152 to 153 °C | O=C1NCCC12CCCN2Cc1ccccc1 (stereo not drawn)
144 to 147 °C | CCC(=O)NC[C@H]1CN(c2ccc(C3C=CS(=O)(=O)CC3)cc2)C(=O)O1 (stereo partly drawn)
118 to 120 °C | COC(=O)c1ccc(CN(C(C)C)S(=O)(=O)c2ccc(F)cc2)cc1
220 to 221 °C | Cc1nc(-c2ccc(F)cc2)n(-c2ccc(S(N)(=O)=O)cc2)n1
210 to 211 °C | C[C@@H](n1cnc2ncccc2c1=O)[C@](O)(Cn1cncn1)c1ccc(F)cc1F
219 °C | CC1OC(n2cnc3c(Nc4ccccc4)ccnc32)C(O)C1O (stereo not drawn)
109 to 110 °C | CC(C)Oc1ccccc1C=C(C=O)C(C=O)=Cc1ccccc1OC(C)C
256 to 257 °C | Nc1cc(Oc2ccc3c(C(=O)Nc4ccc(F)c(C5CC5)c4)cccc3c2)ncn1
80 to 83 °C | COc1ccccc1OCCCOS(N)(=O)=O
48 to 49.5 °C | O=C(c1cccnc1)N1CC2CCC(C1)O2
195 to 197 °C | Cc1ccc(C(=O)Nc2ccccc2O)c(F)c1

melting point | Structure (SMILES)
125 to 126 °C | N#CC1CCSc2[nH]c3ccccc3c21 (stereo not drawn)
49 to 50 °C | CC1CN(CC(C)C(O)c2ccc(C(C)(C)C)cc2)CC(C)O1 (stereo not drawn)
194 to 195 °C | Cc1cc(C)c2c(c1)C=C(C(=O)O)CC2
136 to 139 °C | CCCc1c(OCCCOc2ccc(-c3cocn3)c(OC)c2CCC)ccc2c1OC(C(=O)O)CC2 (stereo not drawn)
205 °C | COc1ccccc1CC(=O)N1C[C@@H]2[C@H](F)CCC(c3ccccc3)(c3ccccc3)[C@@H]2C1
219 to 220 °C | Cc1cc2c(nc1N)C(=O)N(C(C)C1CC1)C2=O (stereo not drawn)
81 to 87.5 °C | CCN(CC)CCCCNc1ncc2cc(-c3c(Cl)cccc3Cl)c(NC(=O)Nc3ccccc3)nc2n1
76.5 to 78 °C | COc1cccc(C2CCC(O)O2)c1 (stereo not drawn)
86 to 98 °C | CN1Cc2cccnc2C(N2CCN(C(=O)CC3CCN(C(=O)OC(C)(C)C)CC3)CC2)c2ccc(Cl)cc21 (stereo not drawn)
102 °C | CC(C)(C)c1ccc(OCC(N)CO)cc1 (stereo not drawn)
144 to 146 °C | CCOC(=O)c1cc(C)c(Cl)nc1Nc1ccc(I)cc1
115 to 116 °C | N#CC1(N2C(=O)c3cccc(Cl)c3C2=O)CCCCC1
177 to 181 °C | CC(C)(Oc1ccc(Cl)cc1)C(=O)N1[C@@H](C(=O)O)C(C)(C)S[C@H]1c1ccccc1
130 to 133 °C | O=[N+]([O-])c1cc(Cl)ccc1N1CCc2cc(Cl)ccc21
186 to 188 °C | CS(=O)(=O)N1CCC(NC(=O)Nc2ccc(F)cc2)CC1
315 to 320 °C | COc1cccc2c(=O)c3c(Cl)ccc([N+](=O)[O-])c3[nH]c12
220 °C | O=C(O)c1cc(=O)c2cc(-c3ccccc3)ccc2s1
141 to 143 °C | O=S(=O)(Nc1ccc(I)cc1)c1ccccc1
242 to 244 °C | Cc1[nH]n(C2CCCC2)c2nc(-c3cccc4cccnc34)nc(=O)c1-2
151 to 153 °C | COC(=O)C(=CNc1ccc(O)cc1)C(=O)C=CC1CC=CCC1 (stereo not drawn)
126 to 128 °C | Cc1cccc(C)c1N(C(C)CCl)S(C)(=O)=O (stereo not drawn)
